Source: PMC11012124, “Synthesis of Novel Triazine-Based Chalcones and 8,9-dihydro-7H-pyrimido[4,5-b][1,4]diazepines as Potential Leads in the Search of Anticancer, Antibacterial and Antifungal Agents” (International Journal of Molecular Sciences, 2024)

Tests used:
[1] = system: SF-295; assay: cells; details: Homo sapiens, SF-295, 48 h; for CC50: read-out: LC50
[2] = system: Trichophyton mentagrophytes (CCC 202-2000); assay: Antifungal broth microdilution (CLSI); format: cell-based; details: Tm: Trichophyton mentagrophytes
Description: Several of the obtained triazine derivatives were evaluated against sensitive fungal species comprising of two yeasts (Candida albicans (ATCC 10231), Cryptococcus neoformans (ATCC 32264)), three dermatophytes (Microsporum gypseum (CCC 115), Trichophyton rubrum (CCC 134-2000), Trichophyton mentagrophytes (CCC 202-2000)), and three Aspergillus fungi ((A. [NT] 26934), A. niger (ATCC 9029), and A. flavus (ATCC 9170)). […] Broth microdilution techniques were performed in 96-well microplates according to the Reference Method for Broth Dilution Antifungal Susceptibility Testing of Yeasts, document M27-A3 [86] and of Filamentous Fungi […]-A8 [87]. […] An inoculum suspension (100 μL) was added to each well (final well volume = 200 μL). One growth control well (containing medium, inoculum, and the same amount of DMSO as used for each compound) and one sterility control well (sample, medium, and sterile water instead of inoculum) were included for each fungus tested. Microtiter plates were incubated in a dark, humid chamber at 30 °C for the time necessary for each fungus. Amphotericin B, Terbinafine, Fluconazole and Itraconazole were used as a positive control. The tests were performed in triplicate.

[3] = system: HOP-62; assay: cells; details: Homo sapiens, HOP-62, 48 h; for CC50: read-out: LC50
[4] = system: MDA-MB-435; assay: cells; details: Homo sapiens, MDA-MB-435, 48 h; for CC50: read-out: LC50
[5] = system: RPMI-8226; assay: cells; details: Homo sapiens, RPMI-8226, 48 h; for CC50: read-out: LC50
[6] = system: SR; assay: cells; details: Homo sapiens, 48 h; for CC50: read-out: LC50
[7] = system: NCI-H23; assay: cells; details: Homo sapiens, NCI-H23, 48 h; for CC50: read-out: LC50
[8] = system: DU-145; assay: cells; details: Homo sapiens, DU-145, 48 h; for CC50: read-out: LC50
[9] = system: MALME-3M; assay: cells; details: Homo sapiens, 48 h; for CC50: read-out: LC50
[10] = system: SK-OV-3; assay: cells; details: Homo sapiens, SK-OV-3, 48 h; for CC50: read-out: LC50
[11] = system: BT-549; assay: cells; details: Homo sapiens, BT-549, 48 h; for CC50: read-out: LC50
[12] = system: OVCAR-8; assay: cells; details: Homo sapiens, OVCAR-8, 48 h; for CC50: read-out: LC50
[13] = system: HCT-15; assay: cells; details: Homo sapiens, HCT-15, 48 h; for CC50: read-out: LC50
[14] = system: NCI-H226; assay: cells; details: Homo sapiens, NCI-H226, 48 h; for CC50: read-out: LC50
[15] = system: MCF7; assay: cells; details: Homo sapiens, MCF7, 48 h; for CC50: read-out: LC50
[16] = system: ACHN; assay: cells; details: Homo sapiens, 48 h; for CC50: read-out: LC50
[17] = system: 60 cancer cell lines; assay: NCI-60 one-dose screen (10 μM); format: cell-based; details: Homo sapiens; one dose of 10 μM, mean over 60 cancer cell lines; read-out: Mean Growth Percent (MGP)
Description: Additionally, the mean of the growth percentages (MGP) of each compound against all the 60 cancer cell lines is also reported, which is used as one of the selection criteria to continue with tests at five concentration doses.

[18] = system: TK-10; assay: cells; details: Homo sapiens, TK-10, 48 h; for CC50: read-out: LC50
[19] = system: NCI-H322M; assay: cells; details: Homo sapiens, 48 h; for CC50: read-out: LC50
[20] = system: RXF 393; assay: cells; details: Homo sapiens, RXF 393, 48 h
[21] = system: OVCAR-4; assay: cells; details: Homo sapiens, OVCAR-4, 48 h; for CC50: read-out: LC50
[22] = system: OVCAR-5; assay: cells; details: Homo sapiens, OVCAR-5, 48 h; for CC50: read-out: LC50
[23] = system: IGROV1; assay: cells; details: Homo sapiens, IGROV-1, 48 h; for CC50: read-out: LC50
[24] = system: SW-620; assay: cells; details: Homo sapiens, SW-620, 48 h; for CC50: read-out: LC50
[25] = system: NCI/ADR-RES; assay: cells; details: Homo sapiens, 48 h
[26] = Hemolytic activity, spectrophotometric; format: cell-based, human; details: human, human red blood cells (huRBC), 5% hematocrit, 200 μg/mL, 37 °C

For CN(C)c1nc(NCCNS(=O)(=O)c2ccc(C(=O)/C=C/c3ccc(Cl)cc3)cc2)nc(N2CCOCC2)n1 [23e], the GI50 [1] was 13.3 µM, the CC50 [1] was 52.8 µM and the MIC [2] was > 250 µg/mL. It also gave a GI50 [3] of 17.5 µM, a CC50 [3] of 65.8 µM and a GI50 [4] of 12.8 µM. For the same molecule, the CC50 [4] was 55.3 µM, the GI50 [5] was 2.55 µM and the CC50 [5] was > 100 µM. The GI50 [6] was 2.52 µM, the CC50 [6] was > 100 µM and the GI50 [7] was 15.7 µM. The CC50 [7] was 55.6 µM, the GI50 [8] was 17.2 µM and the CC50 [8] was 67.3 µM. For the same molecule, the GI50 [9] was 15.1 µM, the CC50 [9] was 54.2 µM and the GI50 [10] was 15.3 µM. It also gave a CC50 [10] of 59.5 µM, a GI50 [11] of 15.3 µM and a CC50 [11] of 56 µM. For the same molecule, the GI50 [12] was 14.8 µM, the CC50 [12] was 54.5 µM and the GI50 [13] was 2.07 µM. For the same molecule, the CC50 [13] was 9.93 µM, the GI50 [14] was 15.7 µM and the CC50 [14] was 73.8 µM. The GI50 [15] was 2.37 µM, the CC50 [15] was 34.6 µM and the GI50 [16] was 13.5 µM. It also gave a CC50 [16] of 51.3 µM, an activity at 10 µM [17] of 6.74% and a GI50 [18] of 15.8 µM. The CC50 [18] was 54.7 µM, the GI50 [19] was 14.4 µM and the CC50 [19] was 52.4 µM. The GI50 [20] was 12.8 µM, the CC50 ([20]; read-out: LC50) was 57.1 µM and the GI50 [21] was 14.7 µM. The CC50 [21] was 57.2 µM, the GI50 [22] was 15 µM and the CC50 [22] was 53.9 µM. The GI50 [23] was 3.08 µM, the CC50 [23] was 36.8 µM and the GI50 [24] was 8.46 µM. It also gave a CC50 [24] of 50.2 µM.

With COc1cc(/C=C/C(=O)c2cc(OC)c(OC)c(OC)c2)ccc1Oc1nc(Nc2ccc(F)cc2)nc(N(C)C)n1 [21d] the GI50 [1] was 1.98 µM, the CC50 [1] was 19.6 µM and the MIC [2] was > 250 µg/mL. The GI50 [3] was 1.83 µM, the CC50 [3] was 8.22 µM and the GI50 [4] was 1.63 µM. The CC50 [4] was 7.69 µM, the GI50 [25] was 1.42 µM and the CC50 ([25]; read-out: LC50) was 8.08 µM. The GI50 [5] was 0.751 µM, the CC50 [5] was > 100 µM and the GI50 [6] was 0.7 µM. The CC50 [6] was > 100 µM, the GI50 [7] was 1.63 µM and the CC50 [7] was 8.08 µM. It also gave a GI50 [8] of 3.99 µM, a CC50 [8] of 67.9 µM and a GI50 [9] of 1.75 µM. For the same molecule, the CC50 [9] was 11.1 µM, the GI50 [10] was 8.42 µM and the CC50 [10] was 97.4 µM. It also gave a GI50 [11] of 1.56 µM, a CC50 [11] of 6.56 µM and a hemolysis at 24 h, 200 µg/mL [26] of 8%. For the same molecule, the GI50 [12] was 1.55 µM, the CC50 [12] was > 100 µM and the GI50 [13] was 1.18 µM. It also gave a CC50 [13] of 6.39 µM, a GI50 [14] of 1.44 µM and a CC50 [14] of 7.24 µM. The GI50 [15] was 1.06 µM, the CC50 [15] was 67 µM and the GI50 [16] was 2.3 µM. The CC50 [16] was 50.6 µM, the activity at 10 µM [17] was -33.4% and the GI50 [18] was 2.53 µM. For the same molecule, the CC50 [18] was 38.1 µM, the GI50 [19] was 2.99 µM and the CC50 [19] was > 100 µM. For the same molecule, the GI50 [21] was 2.07 µM, the CC50 [21] was > 100 µM and the GI50 [22] was 1.48 µM. It also gave a CC50 [22] of 11.6 µM, a GI50 [23] of 1.93 µM and a CC50 [23] of 12.2 µM. It also gave a GI50 [24] of 1.55 µM and a CC50 [24] of 6.89 µM.
